The values that follow are results of earlier work, collected in patent publication US20090304885A1, “Coffee and Tea Baking Compounds and Method of Producing The Same” (priority 2008, published 2009).

In data set [1] the test system is methylazoxymethanol-induced large intestinal tumors. The settings on record: hamster.
For data set [2] the following is noted: animal models.

Take `O=C(/C=C/c1ccc(O)c(O)c1)O[C@@H]1C[C@](O)(C(=O)O)C[C@@H](O)[C@H]1O` [chlorogenic acid]: the inhibition of tumors result in data set [1] is given as “inhibit”. Also, the antibacterial effect result in the data set on Enterobacter cloacae and in the data set on Serratia marcescens was “particularly strong effect” throughout.

As to `O=C(O)c1ccc(O)c(O)c1` [protocatechuic acid], the antibacterial effect entry in the data set with Enterobacter cloacae and in the data set with Serratia marcescens was “particularly strong effect” in each case.

As to `O=C(O)/C=C/c1ccc(O)cc1` [para-coumaric acid], the cancer preventive activities result in data set [2] is listed as “exert cancer preventive activities”.

For `O=C(O)/C=C/c1ccc(O)c(O)c1` [caffeic acid], the cancer preventive activities result in data set [2] is given as “exert cancer preventive activities”.

For `Cn1c(=O)c2c(ncn2C)n(C)c1=O` [caffeine], the antibacterial effect result with Enterobacter cloacae and in the data set on Serratia marcescens was “particularly strong effect” in each case.
